Laboratory results published in the NIST ThermoML archive (doi:10.1016/j.fluid.2008.02.007).
± gives the expanded uncertainty stated by the source.

Details: Crystal; visual observation

Normal melting temperature | SMILES
147.7 ± 0.5 °C | O=C(O)c1ccccc1[N+](=O)[O-] [2-nitrobenzoic acid]
240 ± 0.5 °C | O=C(O)c1ccc([N+](=O)[O-])cc1 [4-nitrobenzoic acid]
